In patent US20260242738A1, “ALK5 INHIBITORS FOR EFFICIENT DERIVATION OF MESENCHYMAL STEM CELLS FROM EMBRYONIC STEM CELLS” (SCRIPPS HEALTH, priority 2022, published 2026):
Values joined by “and” are separate entries in the source; they are usually repeats but may differ in a detail not shown here. Equal values may be shown once. “Also recorded” adds a separate entry of the source.

How the values were obtained:
H9 ES-MSC = test: Pellet culture chondrogenesis, histology and immunohistochemistry; type: cell-based, human; details: 3 weeks, Safranin-O, collagen type I and II
Procedure: Monolayer-expanded ES-MSC (passage 2-5) were detached using Accutase® and 0.5×10^6 cells in 0.5 ml of chondrogenic medium were centrifuged at 900 rpm (~770 G) for 5 minutes to form high-density pellets. At least 5-6 pellets, for each ES-MSC condition, were cultured in serum-free chondrogenic medium consisting of Dulbecco's Modified Eagle Medium (Mediatech Inc., Manassas, VA), 1×ITS supplement (Sigma-Aldrich, St. Louis, MO), 100 nM Dexamethasone (Sigma), 1.25 mg/ml human serum albumin (Bayer, Leverkusen, Germany), 100 μM ascorbic acid 2-phosphate (Sigma), 1% penicillin/streptomycin/gentamycin (PSG, Gibco, Carlsbad, CA), and 10 ng/ml TGFβ3 (PeproTech, Rocky Hill, NJ). Pellets for ex vivo implantation were cultured for 3 days before implantation; pellets for histologic or gene expression analysis were maintained in culture for 3 weeks with media changes every 3 to 4 days.
Cell pellets and explants were fixed in Z-Fix (3.7% formaldehyde, Anatech Ltd., Battle Creek, MI), processed for embedding in paraffin, and cut into 4 μm-thick sections. Sections were stained with Safranin-O and Fast Green to visualize glycosaminoglycan distribution in the tissues. Alzarin Red S staining was used to detect the presence of mineralized matrix.
For assessment of collagen types I and II, sections were pretreated with pepsin (Digest-All 3, Thermo Fisher Scientific) for 9 minutes at 37° C. in a humid chamber before incubation at 4° C. for 12 to 16 hours with the following primary antibodies: rabbit anti-human collagen type I antibody (Ab 34710, Abcam, Cambridge, MA) 1 μg/ml; or mouse anti-human collagen type II (II-II6B3, Hybridoma Bank, University of Iowa) 2 μg/ml. For color development, the ImmPRESS secondary DAB (brown) or AP (red) kits (Vector Laboratories, Burlingame, CA) was used. Isotype controls were used to monitor non-specific staining.

HADC100 ESC = test: Flow cytometry of MSC surface markers after ESC to MSC differentiation with ALK-5 inhibitors; type: cell-based, human; parameters: key to CD90 surface marker expression level / CD105 surface marker expression level / CD34 surface marker expression level / CD45 surface marker expression level / CD73 surface marker expression level: % cells positive relative to isotype control background; details: for triple positive for CD73, CD90 and CD105: co-expression analysis; for CD90 surface marker expression level / CD34 surface marker expression level / CD45 surface marker expression level / CD73 surface marker expression level / CD105 surface marker expression level: HADC100 ESC, SB525334 10 μM 5 days, GW788388 5 μM 5 days, ± standard deviation; for CD90 surface marker expression level: in %; for CD34 surface marker expression level / CD45 surface marker expression level / CD73 surface marker expression level / CD105 surface marker expression level: in % (unit assumed); for MSC differentiation / differentiating ES-MSC: overall statement of the discussion
Procedure: An overview of the differentiation process is provided in FIG. 1, panel K. To create cell clusters or embryoid bodies of uniform size, ESCs were removed from CellStart culture using Accutase® for 2-5 minutes until single cells were observed. […] After 24 hours, the cell clusters were suspended at 2.5-3×10^5 cells per ml in ultra-low adherent 6 well plates (Corning) in StemPro-34 serum free medium (ThermoFisher) supplemented with 2 mM L-glutamine (ThermoFisher Scientific), 50 μg/ml Ascorbic acid (Stemcell Technologies, Vancouver, Canada) and 1.8 μl/ml ITS-G (100× Insulin-Transferrin-Selenium; ThermoFisher); termed as “complete SP-34 medium”.
The medium was changed every 2 days by removing cell clusters into 15 ml sterile tubes and permitted to gravity settle for 10 minutes at room temperature. Most of the media was removed using a pipette to leave approximately 300-500 μl of medium. Freshly made medium (with the appropriate ALK5 inhibitor or DMSO) was replaced at the same volumes and well number into new ultra-low adherent plates.
After treatment with the appropriate ALK5 inhibitor, the cell clusters were removed by gravity settling and suspended in complete SP-34 medium supplemented with bFGF 20 ng/ml (without any ALK-5 inhibitor or DMSO) and transferred onto fibronectin (FN) coated (10 μg/ml; Fibronectin from human plasma, Sigma-Aldrich, St. Louis, MO) T75 cm^2 flasks (passage zero (P0)). The emerging cells and remaining cell clusters were exposed to Accutase® for 5-10 minutes, gently triturated and counted. The cells were seeded at […] in T75 FN coated flask (P1) and medium changed every 3-4 days until 80-90% confluence. At this point, the cells were detached using Accutase® for continued culture, screened for surface marker phenotype characterization (flow cytometry), placed into 3D cultures to assess chondrogenic differentiation capacity, or preserved in liquid nitrogen.
Cells were detached using Accutase®, washed and suspended in FACS buffer at a concentration of 0.2×10^6 cells per 100 μl. A panel of CD molecules were used, each with the following fluorochromes: CD34-FITC, CD45-BV510, CD73-APC (BioLegend, San Diego, California) CD90-PE-Cy7, and CD105-BV650 (BD Biosciences, Franklin Lakes, New Jersey). Matching isotype control IgGs with the same fluorochrome conjugates were used for background gating. For compensation of spectral overlap, unstained cells, and individual tubes with each fluorochrome were incubated with Dynabeads to distinguish between positive and negative fluorochrome signals. Data was acquired with the Novocyte flow cytometer (ACEA Biosciences Inc. San Diego, CA) and analyzed using FlowJo software (version 10, FlowJo, LLC, Ashland, OR) to determine percentage positive signal for each molecule relative to isotype background non-specific signal controls.

[1] = HADC 100 ES-MSC, SB431542 10 μM 10 days, N=4
[2] = N=4, SB431542 10 μM 10 days, listed as SB43
[3] = N=4, SB431542 10 μM 10 days, listed as SB52

| Compound | cartilage-like tissue formation in high density pellets (H9 ES-MSC) | CD73 positive cells (HADC100 ESC; HADC 100 ES-MSC) | CD90 positive cells (HADC100 ESC; [1]) [%] | CD105 positive cells (HADC100 ESC; [1]) [%] | triple positive for CD73, CD90 and CD105 (HADC100 ESC; HADC 100 ES-MSC) [%] | CD90 surface marker expression level (HADC100 ESC; N=4, SB431542 10 μM 10 days) | CD34 surface marker expression level (HADC100 ESC; N=4, SB431542 10 μM 10 days) | CD45 surface marker expression level (HADC100 ESC; N=4, SB431542 10 μM 10 days) | CD73 surface marker expression level (HADC100 ESC; N=4, SB431542 10 μM 10 days) | CD105 surface marker expression level (HADC100 ESC; N=4, SB431542 10 μM 10 days) | CD90 surface marker expression level (HADC100 ESC; [2]) | CD105 surface marker expression level (HADC100 ESC; [2]) | MSC differentiation / differentiating ES-MSC (HADC100 ESC) | CD90 surface marker expression level (HADC100 ESC; [3]) | CD105 surface marker expression level (HADC100 ESC; [3]) |
| --- | --- | --- | --- | --- | --- | --- | --- | --- | --- | --- | --- | --- | --- | --- | --- |
| NC(=O)c1ccc(-c2nc(-c3ccc4c(c3)OCO4)c(-c3ccccn3)[nH]2)cc1 [SB431542] | consistently produced cartilage like-tissue | 94±12% and 93.6±11.8% | 88±10 | 86±7 | 88±8 | 87.6±10.4 | 1.8 ± 0.9 | 1.2 ± 0.5 | 93.6 ± 11.8 | 86.1±6.5 | 87.6 ± 10.4 | 86.1 ± 6.5 | equally effective | – | – |
| Cc1cccc(-c2[nH]c(C(C)(C)C)nc2-c2ccc3nccnc3c2)n1 [SB525334] | – | – | – | – | 87±8 | 93.9±7.6 | 1.9 ± 0.9 | 1.5 ± 0.5 | 99.2 ± 1.0 | 85.4±12.2 | – | – | successfully induced MSC differentiation; also recorded: equally effective | 93.9 ± 7.6 | 85.4 ± 12.2 |
